In article PMC10313671, “Accelerating the prediction and discovery of peptide hydrogels with human-in-the-loop” (Nature Communications, 2023):
Where a SMILES comes first, the peptide text is derived from it.

Legend:
[1] = Peptide hydrogel formation, vial-inverting method; type: physicochemical; design: key to EXP / GELATION: 0: no hydrogel; 1: hydrogel; conditions: for State: ultrasonication, standing 48 h; for State / GELATION / hydrogel formation (in words): vial-inverting method; for Concentration: concentration at which the state was recorded: lowest of 30, 60, 90, 120 mM that gave a gel, 120 mM for non-gelating peptides; for GELATION: 1 = hydrogel, 0 = no hydrogel; for hydrogel formation (in words): representative hydrogels pH between 7.0 to 7.5; for EXP: experimental gelation result of the synthesized peptide
Method: After validating the efficiency of APHC in predicting tetrapeptide hydrogels, we detailed the phase state of 165 synthesized tetrapeptides and the observed assembly behavior in an aqueous solution.
This work defines hydrogel formation as a self-supporting, non-flowing mixture of water and hydrogelator by the vial-inverting method. All purified tetrapeptides were dissolved in ultrapure water (to form a 30 mM solution initially), followed by the stepwise addition of 1 N NaOH solution to adjust the overall aqueous pH to 6.5–8.5. Meanwhile, a short-term ultrasonication treatment was applied after each pH adjustment to facilitate peptide solubilization and speed up peptide self-assembly. […] The mixture was allowed to stand in for another 48 h for complete hydrogelation. Upon the absence of gelation phenomenon during the aforementioned loops, we increased the peptide concentration (60 mM, 90 mM, and 120 mM were selected) and re-started such gelation operation loop to explore their gelation feasibility.

[2] = Transmission electron microscope (negative staining) of peptide assemblies; conditions: for Morphology: TEM, negative staining with uranyl acetate, 120 kV; for morphology by TEM (in words): aqueous solution or hydrogel, negative staining
Method: We used the negative staining technique to observe the morphologies formed by peptides. A micropipette was used to load 10 μL of sample solution to a carbon-coated copper grid, and we used a piece of filter paper to remove the excess solution. After rinsing the grid with the deionized water, we used uranyl acetate to stain the sample for 1 minute and then rinsed the grid with deionized water again.

[3] = 30 mM peptide in ultrapure water, pH adjusted to 6.5-8.5 with 1 N NaOH, concentration raised 30/60/90/120 mM until gelation
[4] = 60 mM peptide in ultrapure water, pH 6.5-8.5 (1 N NaOH), no gel at 30 mM
[5] = 120 mM peptide (highest tested) in ultrapure water, pH 6.5-8.5 (1 N NaOH), precipitate, sol, suspension = no gel

| SMILES | Concentration [1] | State [1, 5] | GELATION ([1]; peptide concentration 120 mM) | Morphology ([2]; line of the table gives 120 mM) | other results |
| --- | --- | --- | --- | --- | --- |
| NCC(=O)N[C@@H](Cc1ccccc1)C(=O)N[C@@H](Cc1ccccc1)C(=O)N[C@@H](Cc1ccc(O)cc1)C(=O)O [GFFY] (H-GFFY-OH) | 30000 µM | – | – | – | State [1, 3]: gel; GELATION ([1]; peptide concentration 30 mM): 1; Morphology ([2]; line of the table gives 30 mM): sheet |
| CC[C@H](C)[C@H](N)C(=O)N[C@@H](Cc1ccccc1)C(=O)N[C@@H](Cc1ccc(O)cc1)C(=O)N[C@H](C(=O)O)[C@@H](C)O [IFYT] (H-IFYT-OH) | 60000 µM | – | – | – | State [1, 4]: gel; GELATION ([1]; peptide concentration 60 mM): 1; hydrogel formation (in words) [1]: hydrogels; Morphology ([2]; line of the table gives 60 mM): sheet; morphology by TEM (in words) [2]: interlaced nanosheets |
| CC(C)[C@H](NC(=O)[C@@H](N)Cc1c[nH]c2ccccc12)C(=O)N[C@@H](Cc1ccccc1)C(=O)N[C@@H](Cc1ccc(O)cc1)C(=O)O [WVFY] (H-WVFY-OH) | 30000 µM | – | – | – | State [1, 3]: gel; GELATION ([1]; peptide concentration 30 mM): 1; hydrogel formation (in words) [1]: hydrogels; Morphology ([2]; line of the table gives 30 mM): sheet; morphology by TEM (in words) [2]: interlaced nanosheets |
| CC(C)C[C@H](N)C(=O)N[C@H](C(=O)N[C@@H](Cc1c[nH]c2ccccc12)C(=O)N[C@@H](Cc1ccccc1)C(=O)O)[C@@H](C)O [LTWF] (H-LTWF-OH) | 120000 µM | sol | 0 | aggregates | – |
| CC(C)C[C@H](NC(=O)[C@H](C)NC(=O)[C@@H](N)Cc1c[nH]c2ccccc12)C(=O)N[C@@H](Cc1c[nH]c2ccccc12)C(=O)O [WALW] (H-WALW-OH) | 30000 µM | – | 1 | – | State [1, 3]: gel; Morphology ([2]; line of the table gives 30 mM): fibre |
| CC(C)C[C@H](NC(=O)[C@@H](NC(=O)CN)C(C)C)C(=O)N[C@@H](Cc1ccccc1)C(=O)O [GVLF] (H-GVLF-OH) | 60000 µM | – | – | – | State [1, 4]: gel; GELATION ([1]; peptide concentration 60 mM): 1; Morphology ([2]; line of the table gives 60 mM): rod |
| NCCCC[C@H](NC(=O)[C@@H](N)Cc1ccccc1)C(=O)N[C@@H](Cc1ccccc1)C(=O)N[C@@H](Cc1ccccc1)C(=O)O [FKFF] (H-FKFF-OH) | 60000 µM | – | – | – | State [1, 4]: gel; GELATION ([1]; peptide concentration 60 mM): 1; Morphology ([2]; line of the table gives 60 mM): sheet |
| CC[C@H](C)[C@H](N)C(=O)N[C@@H](Cc1c[nH]c2ccccc12)C(=O)N[C@H](C(=O)N[C@H](C(=O)O)[C@@H](C)CC)[C@@H](C)CC [IWII] (H-IWII-OH) | 120000 µM | suspension | 0 | aggregates | EXP [1]: 0 |
| CC(C)C[C@H](NC(=O)[C@H](C)NC(=O)[C@@H](N)C(C)C)C(=O)N[C@@H](CCC(=O)O)C(=O)O [VALE] (H-VALE-OH) | 120000 µM | suspension | 0 | aggregates | – |
| CC(C)C[C@H](N)C(=O)N[C@@H](CCCNC(=N)N)C(=O)N[C@@H](Cc1ccccc1)C(=O)N[C@@H](Cc1c[nH]cn1)C(=O)O [LRFH] (H-LRFH-OH) | 120000 µM | sol | 0 | particle | morphology by TEM (in words) [2]: aggregates with different sizes |
| C[C@H](NC(=O)[C@H](Cc1ccc(O)cc1)NC(=O)[C@@H](N)Cc1ccccc1)C(=O)N[C@@H](Cc1ccc(O)cc1)C(=O)O [FYAY] (H-FYAY-OH) | 120000 µM | gel | 1 | sheet | – |
| N[C@@H](Cc1c[nH]cn1)C(=O)N[C@@H](Cc1c[nH]cn1)C(=O)N[C@@H](Cc1c[nH]cn1)C(=O)N[C@@H](Cc1c[nH]cn1)C(=O)O [HHHH] (H-HHHH-OH) | 120000 µM | sol | 0 | aggregates | – |
| CC(C)C[C@H](NC(=O)[C@H](CC(C)C)NC(=O)[C@@H](N)CC(C)C)C(=O)N[C@@H](Cc1ccccc1)C(=O)O [LLLF] (H-LLLF-OH) | 30000 µM | – | – | – | State [1, 3]: gel; GELATION ([1]; peptide concentration 30 mM): 1; Morphology ([2]; line of the table gives 30 mM): aggregates |
| C[C@H](NC(=O)[C@@H](N)Cc1c[nH]c2ccccc12)C(=O)N[C@@H](Cc1ccc(O)cc1)C(=O)N[C@@H](Cc1ccccc1)C(=O)O [WAYF] (H-WAYF-OH) | 30000 µM | – | – | – | State [1, 3]: gel; GELATION ([1]; peptide concentration 30 mM): 1; Morphology ([2]; line of the table gives 30 mM): fibre |
| C[C@@H](O)[C@H](N)C(=O)N[C@@H](CCC(N)=O)C(=O)N[C@@H](Cc1ccccc1)C(=O)N[C@@H](CO)C(=O)O [TQFS] (H-TQFS-OH) | – | – | 0 | – | – |
| CC(C)C[C@H](NC(=O)[C@H](CC(C)C)NC(=O)[C@H](Cc1ccccc1)NC(=O)[C@@H](N)CCCCN)C(=O)O [KFLL] (H-KFLL-OH) | 120000 µM | sol | – | aggregates | – |
| CC(C)C[C@H](NC(=O)[C@H](CC(C)C)NC(=O)[C@@H](N)CC(C)C)C(=O)N[C@@H](Cc1ccc(O)cc1)C(=O)O [LLLY] (H-LLLY-OH) | 30000 µM | – | – | – | State [1, 3]: gel; GELATION ([1]; peptide concentration 30 mM): 1; Morphology ([2]; line of the table gives 30 mM): hybrid(sphere+fibre) |
| N[C@@H](Cc1ccccc1)C(=O)NCC(=O)N[C@@H](Cc1c[nH]c2ccccc12)C(=O)N[C@@H](Cc1c[nH]c2ccccc12)C(=O)O [FGWW] (H-FGWW-OH) | 120000 µM | precipitate | 0 | sphere | morphology by TEM (in words) [2]: aggregates with different sizes |
| CSCC[C@H](NC(=O)[C@@H]1CCCN1)C(=O)N[C@@H](Cc1ccccc1)C(=O)N[C@@H](Cc1ccc(O)cc1)C(=O)O [PMFY] (H-PMFY-OH) | 60000 µM | – | – | – | State [1, 4]: gel; GELATION ([1]; peptide concentration 60 mM): 1; Morphology ([2]; line of the table gives 60 mM): sheet |
| CC(C)[C@H](N)C(=O)N[C@@H](Cc1ccc(O)cc1)C(=O)N[C@H](C(=O)N[C@@H](Cc1ccccc1)C(=O)O)[C@@H](C)O [VYTF] (H-VYTF-OH) | 120000 µM | sol | 0 | particle | – |
| O=C(O)[C@H](Cc1ccc(O)cc1)NC(=O)[C@H](Cc1ccc(O)cc1)NC(=O)[C@H](Cc1c[nH]c2ccccc12)NC(=O)[C@@H]1CCCN1 [PWYY] (H-PWYY-OH) | 60000 µM | – | – | – | State [1, 4]: gel; GELATION ([1]; peptide concentration 60 mM): 1; Morphology ([2]; line of the table gives 60 mM): aggregates |
| CC(C)[C@H](NC(=O)[C@H](Cc1ccc(O)cc1)NC(=O)[C@H](CO)NC(=O)[C@@H](N)Cc1ccccc1)C(=O)O [FSYV] (H-FSYV-OH) | 60000 µM | – | – | – | State [1, 4]: gel; GELATION ([1]; peptide concentration 60 mM): 1; Morphology ([2]; line of the table gives 60 mM): aggregates |
| CC(C)C[C@H](NC(=O)[C@H](CC(C)C)NC(=O)[C@H](CC(C)C)NC(=O)[C@@H](N)CC(C)C)C(=O)O [LLLL] (H-LLLL-OH) | 30000 µM | – | – | – | State [1, 3]: gel; GELATION ([1]; peptide concentration 30 mM): 1; Morphology ([2]; line of the table gives 30 mM): needle |
| CC[C@H](C)[C@H](N)C(=O)N[C@H](C(=O)N[C@H](C(=O)N[C@@H](CCCNC(=N)N)C(=O)O)[C@@H](C)CC)[C@@H](C)CC [IIIR] (H-IIIR-OH) | 120000 µM | suspension | 0 | aggregates | – |
| CC(C)C[C@H](N)C(=O)N[C@H](C(=O)N[C@@H](Cc1c[nH]c2ccccc12)C(=O)N[C@@H](Cc1ccccc1)C(=O)O)C(C)C [LVWF] (H-LVWF-OH) | 90000 µM | – | – | – | State ([1]; 90 mM peptide in ultrapure water, pH 6.5-8.5 (1 N NaOH), no gel at lower concentrations): gel; GELATION ([1]; peptide concentration 90 mM): 1; Morphology ([2]; line of the table gives 90 mM): needle |
| CSCC[C@H](NC(=O)[C@H](CCSC)NC(=O)[C@H](CCSC)NC(=O)[C@@H](N)CCSC)C(=O)O [MMMM] (H-MMMM-OH) | 120000 µM | gel | 1 | hybrid(sphere+fibre) | – |
| CC[C@H](C)[C@H](N)C(=O)N[C@@H](Cc1ccccc1)C(=O)N[C@H](C(=O)N[C@@H](Cc1ccc(O)cc1)C(=O)O)[C@@H](C)CC [IFIY] (H-IFIY-OH) | 60000 µM | – | – | – | State [1, 4]: gel; GELATION ([1]; peptide concentration 60 mM): 1; Morphology ([2]; line of the table gives 60 mM): hybrid(particle+fibre) |
| CC(C)C[C@H](NC(=O)[C@@H](NC(=O)[C@H](Cc1ccccc1)NC(=O)[C@@H](N)CCCCN)C(C)C)C(=O)O [KFVL] (H-KFVL-OH) | – | – | 0 | – | – |
| CC(C)[C@H](N)C(=O)N[C@@H](Cc1ccccc1)C(=O)NCC(=O)N[C@H](C(=O)O)C(C)C [VFGV] (H-VFGV-OH) | 120000 µM | sol | 0 | – | – |
| CC(C)C[C@H](NC(=O)[C@@H](NC(=O)[C@H](Cc1ccccc1)NC(=O)[C@@H](N)CCCCN)C(C)C)C(=O)O [LYS-PHE-VAL-LEU] (H-KFVL-OH) | – | – | – | – | EXP [1]: 0 |
